# Experimental data published in US9339508B2, “Use of 3-methoxy-pregnenolone for the preparation of a drug for treating a traumatic brain injury” (MAPREG, priority 2003, dated 2016).
# Tests used:
# [1] = system: 80 different CNS neurotransmitters receptors; test: In vitro affinity screen on CNS receptors; format: binding; details: 10 μM; significant: inhibition higher than 50%
# From the text: MAP4343 has been screened for in vitro affinity to 80 different CNS neurotransmitters receptors using various validated binding assays.
# social isolated rats = test: Novel object recognition test, social isolated animals, 1 h ITI; format: in vivo, rat; details: 10 mg/kg subcutaneously 1 h before task
# From the text: Cognitive dysfunction, including impaired recognition memory, are common features in depressed patients (Egeland et al., Scand. J. Psychol. 2005). The present experiment explored the ability of 3-methoxy-PREG (43B) administration to increase recognition memory retention in naive animals and to recover recognition memory deficits in animals submitted to the social isolation protocol. Rearing rats in isolation from the time of weaning and throughout adulthood can induce a series of hippocampal structural and molecular deficits paralled by behavioural alterations resembling a depressive-like state (Weiss and Feldon, Psychopharmacology 2001; Bianchi et al., EJN 2006). Recognition memory was assessed using the NOR test which is a two-trial test of recognition memory based on the spontaneous preference of rats for novelty (Ennaceur and Delacour, Behav. Brain. Res. 1988; Bianchi et al. EJN. 2006). Briefly, rats are placed in the open field arena for a 3 min period of habituation and then re-placed in their “home” cage for 1 min. The animals are then re-placed in the arena for the familiarization trial (T1) and allowed to explore two identical objects for 5 min. […] The ability of the animals to discriminate between the novel and the familiar object is then expressed as D2-INDEX: [novel object (sec)−familiar object (sec)]/[novel object (sec)+familiar object (sec)] […]
# Sprague Dawley rats = test: Forced swimming test (FST); format: in vivo, rat; details: 10 mg/kg subcutaneously, 24, 5, 1 h before testing
# Procedure: Drugs were administered following the traditional dosing regimen used in the FST consisting of three injections: 24, 5, 1 h before testing.
# The FET is currently the most widely used animal model for assessing depression related behavior and antidepressant drug activity in rodents (Cryan et al., Neubiorev. 2005). Rats are placed in an inescapable cylinder of water where they develop an immobile posture believed to reflect a “depressive”-like state. The Lime rats spend immobile is decreased by drugs exerting antidepressant activity.
# Additional behaviors can be detected in the FST; namely, climbing and swimming. It has been shown that swimming behavior is sensitive to SSRIs such as fluoxetine whereas climbing is sensitive to norepinephrine re-uptake inhibitors (NRI) such as desipramine.
# [2] = molecular target: T1, human progesterone receptor (PR) (Homo sapiens, UniProt P06401); test: Test of progesterone receptor agonist activity (luciferase transactivation, HEK293T); format: cell-based; details: 24 hours, increasing amounts
# T1 construct: expressed in transfected cells; host or cells: HEK293T cells
# T1 sequence (P06401 1-933): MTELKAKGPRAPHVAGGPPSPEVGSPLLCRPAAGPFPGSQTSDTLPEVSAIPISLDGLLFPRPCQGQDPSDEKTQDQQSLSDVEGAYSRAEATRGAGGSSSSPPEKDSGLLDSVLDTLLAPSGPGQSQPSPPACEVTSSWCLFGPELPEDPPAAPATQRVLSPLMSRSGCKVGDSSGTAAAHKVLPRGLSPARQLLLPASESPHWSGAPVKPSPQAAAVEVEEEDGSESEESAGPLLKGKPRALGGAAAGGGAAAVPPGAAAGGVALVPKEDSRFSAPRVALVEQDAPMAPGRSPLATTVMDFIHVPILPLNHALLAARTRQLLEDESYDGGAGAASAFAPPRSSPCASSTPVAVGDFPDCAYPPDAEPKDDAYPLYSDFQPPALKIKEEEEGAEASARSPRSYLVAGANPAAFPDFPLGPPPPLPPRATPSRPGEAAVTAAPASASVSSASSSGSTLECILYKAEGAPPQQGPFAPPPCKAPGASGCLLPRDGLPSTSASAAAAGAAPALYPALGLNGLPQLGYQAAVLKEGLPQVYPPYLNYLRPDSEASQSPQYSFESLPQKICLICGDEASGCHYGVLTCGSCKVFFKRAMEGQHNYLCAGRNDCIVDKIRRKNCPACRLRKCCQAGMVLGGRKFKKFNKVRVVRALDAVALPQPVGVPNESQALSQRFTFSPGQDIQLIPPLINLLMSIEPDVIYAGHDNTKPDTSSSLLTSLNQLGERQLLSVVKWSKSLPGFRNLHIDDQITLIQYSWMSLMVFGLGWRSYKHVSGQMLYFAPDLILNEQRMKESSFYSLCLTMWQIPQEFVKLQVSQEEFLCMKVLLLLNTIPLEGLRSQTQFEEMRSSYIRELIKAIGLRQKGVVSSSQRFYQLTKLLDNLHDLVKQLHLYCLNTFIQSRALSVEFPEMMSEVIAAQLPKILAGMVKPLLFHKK
# Procedure: The main experimental setting used is the following: HEK293T cells were transiently transfected, using calcium phosphate precipitation technology, with expression receptors pSG5hPR (which permits expression of human progesterone receptor (PR)), pFC31-luc (contains the luciferase gene under the control of the MTV promoter, which is in turn activated by binding of a progestin to progesterone receptor) and pcbetagal (which permits expression of betagalactosidase), and cultured during 24 hours with increasing amounts of various compositions: • 1. […] Test of progesterone receptor […] activity: transfected cells were cultured with progesterone (1 nM) and increasing amounts of RU486 (a well-known progesterone receptor antagonist) or 3-methoxy-pregnenolone. • With this setting, a compound with progesterone receptor antagonist activity competes with progesterone for the occupation of progesterone receptor and results in a progressive loss of transactivation activity when the amount of this compound is increased compared to progesterone. Results
# [3] = In vivo toxicity, daily injection for one month; set-up: species or system rat; details: rats, 48 mg/kg daily injection for one month
compound,measurement,setting,value
"CO[C@H]1CC[C@@]2(C)C(=CC[C@H]3[C@@H]4CC[C@H](C(C)=O)[C@@]4(C)CC[C@@H]32)C1 [3-methoxy-PREG, 3β-methoxy-pregna-5-ene-20-one]",affinity for tested CNS receptors,[1],no significant affinity for any tested receptor
same,discrimination between familiar and novel object,social isolated rats,efficiently discriminated between the familiar and the novel object
same,rat climbing behavior in the FST,Sprague Dawley rats,not changed
same,rat immobility in the FST,Sprague Dawley rats,significantly decreased
same,rat swimming in the FST,Sprague Dawley rats,significantly increased
same,progesterone receptor agonist activity (transactivation),[2],does not have progesterone receptor agonist activity
same,average weight and behavior,[3],affected neither average weight nor behavior
